The source of these data is PMC9834408, “The SPOC domain is a phosphoserine binding module that bridges transcription machinery with co- and post-transcriptional regulators” (Nature Communications, 2023).

“And” between values parts separate entries of the source, which are not always exact repeats. Identical values can stand only once. Like-named read-outs stand apart in the source and are kept apart here. Where a SMILES comes first, the peptide text is derived from it. [ ]: non-standard residue; d: D form. The star is where a group is joined. 5FAM = O=C1OC2(c3ccc(O)cc3Oc3cc(O)ccc32)c2ccc(C(=O)*)cc21; pS = N[C@@H](COP(=O)(O)O)C(=O)O

For test [1], the target named is T1, SHARP SPOC R3552A (Homo sapiens, UniProt Q96T58, R3552A).
T1 construct: SHARP SPOC (3496–3664 aa); His6 (N, cleaved yes); made in house; host or cells: E. coli Rosetta2 (DE3)
T1 sequence (Q96T58 3496-3664 R3552A): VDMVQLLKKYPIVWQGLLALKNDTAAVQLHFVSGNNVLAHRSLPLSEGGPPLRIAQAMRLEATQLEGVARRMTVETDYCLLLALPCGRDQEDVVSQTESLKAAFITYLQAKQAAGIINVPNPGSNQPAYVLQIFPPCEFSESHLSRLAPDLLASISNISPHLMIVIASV
Briefly: Fluorescence anisotropy binding of labeled peptides to SHARP SPOC R3552A. The settings on record: 90 nM labeled peptide, 25 mM Tris-Cl pH 7.4, 25 mM NaCl, 1 mM DTT, 20 °C, three independent experiments. The source says:
(§1) For mammalian expression, human DIDO3, SHARP, and RBM15 were amplified from HEK293T cDNA and cloned into CMV10 N3XFLAG (Sigma) by Gibson assembly (NEB). These constructs were used for cloning ΔSPOC truncations using Gibson assembly (NEB). CMV10 N3XFLAG-PHF3 and PHF3 ΔSPOC constructs were generated previously. NLS-SPOC constructs were cloned into CMV10 N3XFLAG (Sigma) between NotI and XbaI. NLS sequence ([…]) was introduced to ensure nuclear localization of the isolated SPOC domains. […] His6-PHF3 SPOC was generated previously. Arginine mutations were introduced by site-directed mutagenesis according to the FastCloning protocol. Repair templates for CRISPR/Cas9 knock-in were cloned by Gibson assembly. Primer sequences are listed in Supplementary Table 4.
(§2) SPOC domains were expressed in E. coli Rosetta2 (DE3) cells (Novagen). ON cultures were diluted 1:50 in 2×TY, grown at 37 °C until OD600 = 0.8, and induced with 0.5 mM IPTG for 3 h at 30 °C. […]
(§3) Fluorescence anisotropy measurements were performed on a Perkin Elmer LS50 B fluorescence spectrometer operated by Perkin Elmar FL WinLab software (version 3.00). […] The grating factor was determined using unconjugated Atto-488 dye. […]

Test [2] has as its target T2, RBM15 SPOC (Homo sapiens, UniProt Q96T37).
T2 construct: RBM15 SPOC (775–960 aa); His6 (N, cleaved yes); made in house; host or cells: E. coli Rosetta2 (DE3)
Briefly: Fluorescence anisotropy binding of labeled peptides to RBM15 SPOC WT. The settings on record: 90 nM labeled peptide, 25 mM Tris-Cl pH 7.4, 25 mM NaCl, 1 mM DTT, 20 °C, three independent experiments.
Text: as §1
(§4) SPOC domains were expressed in E. coli Rosetta2 (DE3) cells (Novagen). ON cultures were diluted 1:50 in 2×TY, grown at 37 °C until OD600 = 0.8, and induced with 0.5 mM IPTG for 3 h at 30 °C. […] Elution with 25 mM Tris-Cl pH 7.4, 500 mM NaCl, and 500 mM Imidazole was followed by TEV cleavage of the His6-tag and size exclusion chromatography using Sephacryl S-200 HR 16/600 or 26/600 (Cytiva) equilibrated in 25 mM Tris-Cl pH 7.4, 25 mM NaCl, 1 mM DTT.
(§5) One molar equivalent of Atto-488 NHS ester (Atto-tec) and five equivalents of DIPEA (Sigma-Aldrich) was added to three equivalents of the peptide. Reactions were incubated ON at room temperature (RT) and protected from light. Labeled peptides were purified by reverse-phase HPLC over a C18 column (Agilent Technologies) using a gradient from 30 to 70% Methanol (Merck). Purified peptides were lyophilized and stored at −20 °C.
(§6) Fluorescence anisotropy measurements were performed on a Perkin Elmer LS50 B fluorescence spectrometer operated by Perkin Elmar FL WinLab software (version 3.00). The excitation wavelength was set to 500 nm (excitation slit 10 nm), the emission wavelength to 518 nm (emission slit 6 nm), and the integration time to 1 s. Measurements were conducted at 20 °C in 25 mM Tris-Cl pH 7.4, 25 mM NaCl, and 1 mM DTT. The grating factor was determined using unconjugated Atto-488 dye. […]

The target of test [3] is T3, SHARP SPOC (Homo sapiens, UniProt Q96T58).
T3 construct: SHARP SPOC (3496–3664 aa); His6 (N, cleaved yes); made in house; host or cells: E. coli Rosetta2 (DE3)
Kind of test: Fluorescence anisotropy binding of labeled peptides to SHARP SPOC WT. The following applies: 90 nM labeled peptide, 25 mM Tris-Cl pH 7.4, 25 mM NaCl, 1 mM DTT, 20 °C, three independent experiments.

For test [4], the target named is T4, PHF3 SPOC (Homo sapiens, UniProt Q92576).
T4 construct: His6-PHF3 SPOC was generated previously; His6 (N, cleaved yes); made in house; host or cells: E. coli Rosetta2 (DE3)
Kind of test: Fluorescence anisotropy binding of labeled peptides to PHF3 SPOC WT. The protocol:
as §4, §5, §6

Test [5] concerns the target T5, DIDO SPOC (Homo sapiens, UniProt Q9BTC0).
T5 construct: human DIDO3 SPOC (1047–1205 aa); His6 (N, cleaved yes); made in house; host or cells: E. coli Rosetta2 (DE3)
Briefly: Fluorescence anisotropy binding of labeled peptides to DIDO SPOC WT. The following applies: 90 nM labeled peptide, 25 mM Tris-Cl pH 7.4, 25 mM NaCl, 1 mM DTT, 20 °C, three independent experiments.
Text: as §1, §2, §3
For orientation: In fluorescence polarisation assays a small probe gives low polarisation when free and higher when bound to something large.

Test [6] deals with T6, PHF3 SPOC R1248A (Homo sapiens, UniProt Q92576, R1248A).
T6 construct: His6-PHF3 SPOC was generated previously; His6 (N, cleaved yes); made in house; host or cells: E. coli Rosetta2 (DE3)
T6 sequence (Q92576 1199-1356 R1248A limits assumed): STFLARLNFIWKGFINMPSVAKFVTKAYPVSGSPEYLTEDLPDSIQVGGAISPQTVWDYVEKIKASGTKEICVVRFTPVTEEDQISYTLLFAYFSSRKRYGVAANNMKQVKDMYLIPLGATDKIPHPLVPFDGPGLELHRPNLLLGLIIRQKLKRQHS
Kind of test: Fluorescence anisotropy binding of labeled peptides to PHF3 SPOC R1248A. The settings on record: 90 nM labeled peptide, 25 mM Tris-Cl pH 7.4, 25 mM NaCl, 1 mM DTT, 20 °C, three independent experiments.
Text: as §1, §2, §3

In test [7] the target is T7, DIDO SPOC R1096A (Homo sapiens, UniProt Q9BTC0, R1096A).
T7 construct: human DIDO3 SPOC (1047–1205 aa); His6 (N, cleaved yes); made in house; host or cells: E. coli Rosetta2 (DE3)
T7 sequence (Q9BTC0 1047-1205 R1096A): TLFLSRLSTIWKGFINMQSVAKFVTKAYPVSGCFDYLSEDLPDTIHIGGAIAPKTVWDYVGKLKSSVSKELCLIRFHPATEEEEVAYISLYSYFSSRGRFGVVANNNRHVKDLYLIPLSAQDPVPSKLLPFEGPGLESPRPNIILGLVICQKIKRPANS
Kind of test: Fluorescence anisotropy binding of labeled peptides to DIDO SPOC R1096A. The settings on record: 90 nM labeled peptide, 25 mM Tris-Cl pH 7.4, 25 mM NaCl, 1 mM DTT, 20 °C, three independent experiments.
Text: as §1, §2, §3

The term Kd denotes the concentration at which binding is half-saturated.

T2 sequence (Q96T37 775-960): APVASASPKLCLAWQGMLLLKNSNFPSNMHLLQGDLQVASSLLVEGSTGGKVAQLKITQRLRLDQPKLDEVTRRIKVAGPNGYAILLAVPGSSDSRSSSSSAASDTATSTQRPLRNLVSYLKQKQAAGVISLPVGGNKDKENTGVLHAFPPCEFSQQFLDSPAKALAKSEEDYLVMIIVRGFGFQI
T4 sequence (Q92576 1199-1356 limits assumed): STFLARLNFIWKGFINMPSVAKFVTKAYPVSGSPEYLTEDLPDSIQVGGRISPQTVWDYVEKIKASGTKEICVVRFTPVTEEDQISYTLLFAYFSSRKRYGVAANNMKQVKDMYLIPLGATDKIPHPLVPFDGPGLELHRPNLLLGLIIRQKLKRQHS
T5 sequence (Q9BTC0 1047-1205): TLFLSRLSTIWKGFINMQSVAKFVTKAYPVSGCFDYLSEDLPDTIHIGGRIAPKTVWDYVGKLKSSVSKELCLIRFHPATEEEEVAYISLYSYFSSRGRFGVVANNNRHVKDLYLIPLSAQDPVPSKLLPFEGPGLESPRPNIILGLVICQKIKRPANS
T3 sequence (Q96T58 3496-3664): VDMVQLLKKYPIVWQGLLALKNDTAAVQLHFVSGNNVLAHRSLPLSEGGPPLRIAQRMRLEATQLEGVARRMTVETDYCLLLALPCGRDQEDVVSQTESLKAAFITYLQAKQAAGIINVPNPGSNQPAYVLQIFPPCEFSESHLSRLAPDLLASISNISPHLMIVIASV

`CC(C)C[C@H](NC(=O)[C@H](CC(C)C)NC(=O)[C@@H]1CCCN1C(=O)[C@H](C)NC(=O)[C@@H]1CCCN1C(=O)[C@H](CCC(=O)O)NC(=O)[C@H](CCCNC(=N)N)NC(=O)c1ccc2c(c1)C(=O)OC21c2ccc(O)cc2Oc2cc(O)ccc21)C(=O)N[C@@H](CO)C(=O)N[C@@H](C)C(=O)N[C@@H](CCC(N)=O)C(=O)N[C@@H](Cc1ccc(O)cc1)C(=O)N[C@@H](CCC(=O)O)C(=O)N[C@H](C(=O)N[C@@H](CC(C)C)C(=O)N[C@@H](COP(=O)(O)O)C(=O)N[C@@H](CC(=O)O)C(=O)N[C@@H](CO)C(=O)N[C@@H](CC(=O)O)C(=O)N[C@@H](CC(=O)O)C(=O)O)[C@@H](C)O` [NCoR pS2436] (5FAM-REPAPLLSAQYETL[pS]DSDD-OH): the Kd in test [1] stood at 23.3 ± 0.5 µM.
Take `C[C@@H](O)[C@H](NC(=O)[C@@H]1CCCN1C(=O)[C@H](CO)NC(=O)[C@H](Cc1ccc(O)cc1)NC(=O)[C@H](COP(=O)(O)O)NC(=O)[C@@H]1CCCN1C(=O)[C@H](CO)NC(=O)[C@@H](NC(=O)[C@@H]1CCCN1C(=O)[C@H](CO)NC(=O)[C@H](Cc1ccc(O)cc1)NC(=O)[C@H](CO)NC(=O)[C@@H]1CCCN1)[C@@H](C)O)C(=O)N[C@@H](CO)C(=O)N1CCC[C@H]1C(=O)N[C@@H](COP(=O)(O)O)C(=O)O` [2xS7P]: the equilibrium dissociation constant (Kd) in test [2] (Kd) was determined as 23.5 ± 0.4 µM.
For the molecule `CC(C)C[C@H](NC(=O)[C@H](CC(C)C)NC(=O)[C@@H]1CCCN1C(=O)[C@H](C)NC(=O)[C@@H]1CCCN1C(=O)[C@H](CCC(=O)O)NC(=O)[C@H](CCCNC(=N)N)NC(=O)c1ccc2c(c1)C(=O)OC21c2ccc(O)cc2Oc2cc(O)ccc21)C(=O)N[C@@H](CO)C(=O)N[C@@H](C)C(=O)N[C@@H](CCC(N)=O)C(=O)N[C@@H](Cc1ccc(O)cc1)C(=O)N[C@@H](CCC(=O)O)C(=O)N[C@H](C(=O)N[C@@H](CC(C)C)C(=O)N[C@@H](CO)C(=O)N[C@@H](CC(=O)O)C(=O)N[C@@H](CO)C(=O)N[C@@H](CC(=O)O)C(=O)N[C@@H](CC(=O)O)C(=O)O)[C@@H](C)O` [NCoR] (5FAM-REPAPLLSAQYETLSDSDD-OH), the affinity in test [1], expressed as Kd, was 262 ± 74.2 µM.
Consider `CSCC[C@H](NC(=O)c1ccc2c(c1)C(=O)OC21c2ccc(O)cc2Oc2cc(O)ccc21)C(=O)N[C@H](C(=O)N[C@@H](CC(N)=O)C(=O)N[C@@H](CCC(=O)O)C(=O)N[C@@H](CCC(=O)O)C(=O)N1CCC[C@H]1C(=O)N[C@@H](CC(C)C)C(=O)N1CCC[C@H]1C(=O)N[C@@H](CCCCN)C(=O)N[C@@H](CCCCN)C(=O)N[C@H](C(=O)N[C@@H](CCCNC(=N)N)C(=O)N[C@@H](CC(C)C)C(=O)N[C@@H](COP(=O)(O)O)C(=O)N[C@@H](CCC(=O)O)C(=O)N[C@H](C(=O)N[C@@H](CC(=O)O)C(=O)N[C@@H](Cc1ccccc1)C(=O)N[C@@H](CCCCN)C(=O)O)[C@@H](C)O)C(C)C)[C@@H](C)O` [WTAP pS14] (5FAM-MTNEEPLPKKVRL[pS]ETDFK-OH), for which the Kd in test [2] (read-out: Kd) was determined as 21.5 ± 1.5 µM.
For `C[C@@H](O)[C@H](NC(=O)[C@@H]1CCCN1C(=O)[C@H](CO)NC(=O)[C@H](Cc1ccc(O)cc1)NC(=O)[C@H](CO)NC(=O)[C@@H]1CCCN1C(=O)[C@H](COP(=O)(O)O)NC(=O)[C@@H](NC(=O)[C@@H]1CCCN1C(=O)[C@H](CO)NC(=O)[C@H](Cc1ccc(O)cc1)NC(=O)[C@H](CO)NC(=O)[C@@H]1CCCN1)[C@@H](C)O)C(=O)N[C@@H](COP(=O)(O)O)C(=O)N1CCC[C@H]1C(=O)N[C@@H](CO)C(=O)O` [2xS5P], the dissociation constant Kd is 11.8 µM and 29.6 µM in test [2] (read-out: Kd); 20.6 ± 0.1 µM in test [3].
Turning to `C[C@@H](O)[C@H](NC(=O)[C@@H]1CCCN1C(=O)[C@H](COP(=O)(O)O)NC(=O)[C@H](Cc1ccc(O)cc1)NC(=O)[C@H](CO)NC(=O)[C@@H]1CCCN1C(=O)[C@H](CO)NC(=O)[C@@H](NC(=O)[C@@H]1CCCN1C(=O)[C@H](COP(=O)(O)O)NC(=O)[C@H](Cc1ccc(O)cc1)NC(=O)[C@H](CO)NC(=O)[C@@H]1CCCN1)[C@@H](C)O)C(=O)N[C@@H](CO)C(=O)N1CCC[C@H]1C(=O)N[C@@H](CO)C(=O)O` [2xS2P], the Kd in test [4] (PHF3 SPOC WT, fluorescence anisotropy, 90 nM labeled peptide titrated with SPOC domain, 25 mM Tris-Cl pH 7.4, 25 mM NaCl, 1 mM DTT, 20 °C, three independent experiments, read-out: Kd) was 0.42 ± 0.02 µM; in test [5], 4.8 ± 0.6 µM; in test [6] it was 8.4 ± 0.3 µM; in test [7], 22.4 ± 2.1 µM.
On to `C[C@@H](O)[C@H](NC(=O)[C@@H]1CCCN1C(=O)[C@H](CO)NC(=O)[C@H](Cc1ccc(O)cc1)NC(=O)[C@H](CO)NC(=O)[C@@H]1CCCN1C(=O)[C@H](CO)NC(=O)[C@@H](NC(=O)[C@@H]1CCCN1C(=O)[C@H](COP(=O)(O)O)NC(=O)[C@H](Cc1ccc(O)cc1)NC(=O)[C@H](CO)NC(=O)[C@@H]1CCCN1)[C@@H](C)O)C(=O)N[C@@H](CO)C(=O)N1CCC[C@H]1C(=O)N[C@@H](CO)C(=O)O` [1xS2P], for which, in test [4], the Kd came to 103 ± 4 µM.
